Read-outs that look alike come from different tables or passages of the source.
Legend:
male Sprague Dawley rats = test: Psilocybin operant drug discrimination in rats; type: in vivo, rat
Description: Thirty-six (36) male Sprague Dawley rats served as subjects. Rats had been trained to lever press for food in standard operant conditioning chambers controlled by Med-PC software (Med. Associates Inc., St. Albans, VT) followed by training to associate the right lever to a psilocybin stimulus (0.5 mg/kg, SC), and the left lever to a neutral stimulus (saline, SC). The sequence of psilocybin and saline injections were administered under a randomized design where neither condition was administered for more than 3 consecutive days. […] The rats continued to receive a daily food ration (˜18 g at day end) with ad libitum access to water in their home cages.
Test sessions continued until 50 pellets had been obtained or 30 min had elapsed. During these sessions, response rate was also measured. Three types of tests were conducted: • 1. Dose-response profile for compound 2-2 to generalize to the psilocybin cue. On test days, rats received a single compound 2-2 dose (1, 3, or 10 mg/kg, IP) 10 min prior to test. The distribution of vehicle vs. drug-paired lever presses was recorded as well as the rate of lever response. • 2. Effect of the 5-HT subtype selective antagonists, M100907 (5-HT2A receptor selective; Kehne et al, 1996) and SB242084 (5-HT2C receptor selective, Kennett et al, 1997) against the generalization of compound 2-2. On test days, the rats received a single dose (0.5 mg/kg IP) of either antagonist 30 min before compound 2-2 (10 mg/kg, IP), which was administered 10 min prior to testing. The distribution of vehicle vs. drug-paired lever presses was recorded as well as the rate of lever response. • 3. Time-course profile for compound 2-2 (10 mg/kg IP) to generalize to the psilocybin cue. On test days, the rats received a single compound 2-2 dose (10 mg/kg, IP) at various pretreatment times (i.e., 10 min, 30 min, 1 h, 2 h, 4 h, 8 h) prior to test. The distribution of vehicle vs. drug-paired lever presses was recorded as well as the rate of lever response.
Drug testing was conducted on a Tuesday and Friday with the animals run on either vehicle or training drug (psilocybin 0.5 mg/kg, SC) on intervening weekdays. Group sizes varied among doses and pretreatment times and tended to be higher under situations where the choice response was more variable. This adjustment was made in an attempt to get as reliable a measure of drug vs. vehicle discrimination as possible at that specific dose or pretreatment time.

5-HT2A = 5-HT2A (Homo sapiens, UniProt P28223); test: 5-HT2A receptor binding in human post-mortem frontal cortical tissue
Chain of 5-HT2A (P28223 whole entry): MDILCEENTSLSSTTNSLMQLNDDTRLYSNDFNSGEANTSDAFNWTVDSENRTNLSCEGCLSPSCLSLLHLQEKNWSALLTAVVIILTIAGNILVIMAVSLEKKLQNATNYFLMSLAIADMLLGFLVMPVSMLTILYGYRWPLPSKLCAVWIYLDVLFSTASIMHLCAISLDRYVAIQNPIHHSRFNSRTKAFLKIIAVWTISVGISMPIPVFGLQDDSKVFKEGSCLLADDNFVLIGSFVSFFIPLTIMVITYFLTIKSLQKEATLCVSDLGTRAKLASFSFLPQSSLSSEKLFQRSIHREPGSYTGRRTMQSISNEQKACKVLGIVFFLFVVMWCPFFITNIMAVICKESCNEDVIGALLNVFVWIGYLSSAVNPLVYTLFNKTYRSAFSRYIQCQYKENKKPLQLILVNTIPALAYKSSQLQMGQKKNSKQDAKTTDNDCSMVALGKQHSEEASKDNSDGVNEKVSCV

[1] = Terminal plasma and brain concentrations in mice; type: in vivo; conditions: C57BL/6J, mouse, intraperitoneal
Description: Prior to the onset of procedures, animals were weighed and allocated into 5 groups by a statistician based on body weight. Animals sharing a cage were dosed with the same drug treatments to avoid cross contamination between groups. Animals were dosed intraperitoneally with psilocybin (3 mg/kg), or one of 3 doses of compound 2-2 (1 mg/kg, 3 mg/kg, 10 mg/kg). Dosing was to a timed scheduled. Animals were weighed prior to dosing and the body weight recorded. Food and water intake were not monitored. The animals were dosed at time “0” and then returned to the home cage. Behaviors of note after dosing were recorded. Each animal was humanely killed (by exposure to increasing CO2 concentration and confirmation of death by cervical dislocation) to allow terminal blood sampling to take place 15 minutes after dosing. The brain sampling was performed immediately after blood sampling was completed for each animal.
Post-mortem blood samples (approx. 0.5 ml) were collected from all animals by cardiac puncture for DMPK analysis, dispensed into a LH-coated tube. The blood samples were gently inverted, centrifuged promptly (2400 g for 5 minutes at 4° C.) and 150 μl of plasma from each animal was placed into a 96-well plate. Plasma samples from group B were stabilized with DTT (50 mM; 1:10). All plasma samples were frozen on dry ice and stored at approximately −80° C. prior to analysis. Whole brains were removed from all animals, rinsed briefly with saline and blot dried. The left and right frontal cortices (˜25 mg each frontal cortex) were dissected separately from the brain, weighed, placed in microtubes, frozen on dry ice and stored at −20° C. to measure receptor occupancy. The remaining brain tissue was weighed, placed in homogenization tubes, frozen on dry ice, and stored at −80° C. prior to transferring (on dry ice) to Signature DMPK with the plasma samples.

Male WKY rats [2] = test: Confirmatory 30 mg/kg sleep, locomotor, body temperature and qEEG study in WKY rats; type: in vivo, rat; conditions: 30 mg/kg IP
Description: The aim of the current study was to confirm the effects of compound 2-2 (30 mg/kg) on sleep-wake behavior and EEG brain oscillatory power in an independent cohort of male Wistar Kyoto rats. The study was carried out similarly to Examples 7 and 9 with differences noted below. Male WKY rats (n=8, 323-352 g at the start of dosing) were housed in groups of 2-3 animals per cage with standard housing conditions.

Male WKY rats [3] = test: Low-dose sleep, locomotor, body temperature and qEEG study in WKY rats; type: in vivo, rat; conditions: 1, 3 and 10 mg/kg IP
Description: The aim of the current study was to identify a minimal effective dose of compound by testing a series of lower doses (1, 3 and 10 mg/kg). The study was carried out similarly to Examples 7 and 9 with differences noted below. Male WKY rats (n=8, 255-296 g at the start of dosing) were housed in groups of 2-3 animals per cage with standard housing conditions.

COc1ccc(OC)c(CCNCc2cc(C)cc(F)c2)c1 [Compound 2-2, 2-(2,5-dimethoxyphenyl)-N-(3-fluoro-5-methylbenzyl)ethan-1-amine]
generalization to the psilocybin cue (male Sprague Dawley rats; 10 mg/kg IP after M100907 0.5 mg/kg IP (30 min before)): 2+1% | generalization to the psilocybin cue (male Sprague Dawley rats; 10 mg/kg IP after SB242084 0.5 mg/kg IP (30 min before)): 71+14% | response rate (male Sprague Dawley rats; 10 mg/kg IP following antagonist pretreatment): no significant effect | generalization to the psilocybin cue (male Sprague Dawley rats; 10 mg/kg IP, 10 min prior to test (Veh pretreatment)): 91+8% | generalization to the psilocybin cue (male Sprague Dawley rats; 10 mg/kg IP, pretreatment time 4 h): ~35% | generalization to the psilocybin cue (male Sprague Dawley rats; 10 mg/kg IP, pretreatment times of 10 and 30 min): ~80% | response rate (male Sprague Dawley rats; 10 mg/kg IP, across pretreatment times 10 min-8 h): minor effect | rate of responding (male Sprague Dawley rats; 10 mg/kg IP, only at 10 min post dose): modestly suppressed | response rate (male Sprague Dawley rats; dose range 1-10 mg/kg IP): minor effects | IC50 (5-HT2A): 69 nM | Ki (5-HT2A): 30.8 nM | concentration at 15 min ([1]; brain, 1 mg/kg, 1 mg/kg IP, read-out: Terminal Brain Conc (ng/g) at 15 min, Mean): 182 ng/g | concentration at 15 min ([1]; brain, 1 mg/kg, 1 mg/kg IP, read-out: Terminal Brain Free Concentration (uM) at 15 min, Mean): 0.01 µM | concentration at 15 min ([1]; brain, 1 mg/kg, 1 mg/kg IP, read-out: Terminal Brain Total Concentration (uM) at 15 min, Mean): 0.6 µM | concentration at 15 min ([1]; brain, 3 mg/kg, 3 mg/kg IP, read-out: Terminal Brain Free Concentration (uM) at 15 min, Mean): 0.039 µM | concentration at 15 min ([1]; brain, 10 mg/kg, 10 mg/kg IP, read-out: Terminal Brain Conc (ng/g) at 15 min, Mean): 3280 ng/g | concentration at 15 min ([1]; brain, 10 mg/kg, 10 mg/kg IP, read-out: Terminal Brain Free Concentration (uM) at 15 min, Mean): 0.175 µM | concentration at 15 min ([1]; brain, 10 mg/kg, 10 mg/kg IP, read-out: Terminal Brain Total Concentration (uM) at 15 min, Mean): 10.8 µM | concentration at 15 min ([1]; plasma, 1 mg/kg, 1 mg/kg IP, read-out: Terminal Plasma Conc (ng/mL) at 15 min, Mean): 60.1 ng/mL | concentration at 15 min ([1]; plasma, 1 mg/kg, 1 mg/kg IP, read-out: Terminal Plasma Free Concentration (uM) at 15 min, Mean): 0.016 µM | concentration at 15 min ([1]; plasma, 1 mg/kg, 1 mg/kg IP, read-out: Terminal Plasma Total Concentration (uM) at 15 min, Mean): 0.2 µM | concentration at 15 min ([1]; plasma, 3 mg/kg, 3 mg/kg IP, read-out: Terminal Plasma Free Concentration (uM) at 15 min, Mean): 0.082 µM | concentration at 15 min ([1]; plasma, 10 mg/kg, 10 mg/kg IP, read-out: Terminal Plasma Conc (ng/mL) at 15 min, Mean): 1020 ng/mL | concentration at 15 min ([1]; plasma, 10 mg/kg, 10 mg/kg IP, read-out: Terminal Plasma Free Concentration (uM) at 15 min, Mean): 0.277 µM | concentration at 15 min ([1]; plasma, 10 mg/kg, 10 mg/kg IP, read-out: Terminal Plasma Total Concentration (uM) at 15 min, Mean): 3.38 µM | NREM sleep latency (Male WKY rats [2]): no significant effect | body temperature (Male WKY rats [2]): transiently reduced | locomotion (Male WKY rats [2]): did not affect | body temperature (Male WKY rats [3]): did not affect | locomotion (Male WKY rats [3]): did not affect
